US20240285557A1, “PHARMACEUTICAL COMPOSITION COMPRISING LIPASE INHIBITOR FOR TREATMENT OR TREATMENT OF RNA VIRAL INFECTIONS” (priority 2021, published 2024)

Tested on: SARS-COV-2 KCDC03 strain (A lineage), KDCA51463 strain (Alpha lineage), and KDCA55905 strain (Beta lineage)
Assay type: in vivo, Golden Syrian hamsters
Conditions: 40 mg kg^−1 day^−1 lipase inhibitor, 2.5 mg/kg/day remdesivir

Question: Which “pneumonia severity (and weight loss), comparison between treatment groups” value does the source give for CCN(CC)C(=O)Nc1cccc(-c2ccc(N(C)C)cc2)c1 [DABPU-DE] here?
Answer: more improvement
